Values of other authors as cited in patent publication US8808764B2, “Methods and compositions for increasing growth hormones” (Quality IP Holdings, Inc., priority 2012, dated 2014).

Experiments:
[1] = tested on: hGH
[2] = tested on: GH; settings: subcutaneous injection of 0.06 IU in GH deficient subjects

Row | Molecule | elevation of serum hGH levels ([1]; 30 g, intravenous, in males) [fold] | increase in hGH levels ([1]; intravenous infusion of 183 mg/kg body weight in females) [fold] | mean level of GH reached [2] [ng/mL]
1 | N=C(N)NCCC[C@H](N)C(=O)O [arginine] | 8.6 | ≥ 20 | 
2 | HGH: human growth hormone given by subcutaneous injection to GH deficient subjects |  |  | 0.4
